From patent publication US8088412B2, “Intralymphatic chemotherapy drug carriers” (priority 2008, dated 2012) come the findings set out here.

Usually IC50 stands for the concentration that gives 50% inhibition.

In data set [1] the test system is MDA-MB-468LN tumor cells. Nature of the data set: Efficacy of HA-doxorubicin vs intravenous doxorubicin, breast tumor xenograft. Format: in vivo, nude mice. Particulars: 6 weeks post-implantation; in saline via the tail vein, doses at 3 and 5 weeks. As for the experimental part: Nude nu/nu mice were implanted with 1×10^6 cells (MDA-MB-468LN human breast cancer cells) into the mammary fatpad, after approximately 4 weeks a 100-200 mm^3 tumor had developed in the axillary lymph node package. Animals were randomly divided into four treatment groups of five animals each: intravenous saline, s.q. HA, intravenous cisplatin, or s.q. HA-cisplatin. At this point, doses were administered to the animals. In the HA-cisplatin and the HA groups, HA-cisplatin (3.3 mg/kg based on Pt-content) or HA (3.3 mg/kg) was dissolved in 100 mcL saline was injected subcutaneously peritumorally. […] In all study groups, a second dose was administered after 1 week. Tumor volumes were measured weekly using calipers and the formula: Volume=0.52×(width^2*length). Animals were euthanized when the tumor volume exceeded […] or the body score index fell below 2.
To evaluate the efficacy of HA-doxorubicin conjugates injected subcutaneously in the […] compared with intravenous doxorubicin, the following experiment was performed. MDA-MB-468LN tumor cells into nude mice as described in [128] and divided into four groups of five animals each. After 3 weeks, HA-DOX was injected peritumorally at 3.3 mg/kg (DOX basis), DOX was injected in saline via the tail vein, HA was injected peritumorally, and saline was injected via the tail vein. […]

Data set [2] concerns MCF7. Description: In vitro cell toxicity (DMEM, resazurin blue, 72 hrs). Format: cell-based, human. As for the experimental part:
(§1) Cell lines were seeded into 96-well plates (5000 cells/well) in DMEM medium supplemented with 5% FBS and 1% penicillin/streptomycin.
On the technique in general: Resazurin is reduced to fluorescent resorufin, in cell work by metabolically active cells.

In data set [3] the test system is MDA-MB-231. The description is as above. Type of data set: cell-based, human. As for the experimental part:
as §1

The subject of data set [4] is MDA-MB-468LN. Nature of the data set: Cell proliferation over 72 hrs, resazurin blue. Format: cell-based, human. As for the experimental part: Preceding proliferation studies, cells were trypsinized and seeded into 96-well plates (5,000 cells/well). […] After 4 hrs, well fluorescence was measured (λex 560 nm, λem 590 nm) using a fluorophotometer (SpectraMax Gemini; Molecular Devices, Sunnyvale, Calif.). IC50 was determined as the midpoint between saline (positive) and cell-free (negative) controls for each plate.

Data set [5] is described as follows: Tissue distribution after subcutaneous cisplatin or cisplatin-HA into right mammary fat pad. Format: in vivo, Sprague-Dawley rats. Here is the method: Animals were allowed to recover with access to food and water. […] Organs and tissues were washed with 0.9% saline and frozen (−80° C.) until analysis. Plasma was separated by centrifugation from whole blood and frozen (−80° C.).
In vitro release samples (n=3) and plasma samples (n=5) were diluted 200-fold and 10-fold, respectively, with 0.1% nitric acid for analysis. […] Lymph nodes were processed similarly using 10 mg of tissue. After digestion, samples were homogenized (Tissue Tearor, BioSpec Products Inc., Bartlesville, Okla.). All samples were centrifuged (17 000×g, 20 min), and the supernate used for analysis.
Analysis was performed on a Varian SpectrAA GTA-110 with graphite furnace and partition tubes. Samples (21 μL) were injected using the autosampler, followed by 19 μL of 0.1% nitric acid. […] The furnace program was as follows: ramp 25 to 80° C., hold 2 s, ramp to 120° C., hold 10 s, ramp to 1000° C., hold 5 s, ramp to 2700° C., hold 2 s, cool to 25° C. over 20 s. The graphite partition tube was cleaned every 40 samples by baking at 2800° C. for 7 s. Argon was used as the injection and carrier gas.

The test system of data set [6] is MDA-1986 cells. Description: In vivo efficacy of HA-cisplatin, orthotopic HNSCC model. Further details: species or system Nu/Nu female athymic nude mice. The following applies: intravenous, weekly dose of 3.3 mg/kg for 3 weeks; 3 mice. The source says: The in vivo efficacy of HA-cisplatin was studied. All treatment began once animal HNSCC tumors reached 100 mm3 volume. Treatment commenced for 3 weeks. All animals were given 5×10^5 MDA-1986 cells in the buccal mucosa of the left cheek (which is a novel orthotopic HNSCC model I developed this year) and tumors develop in 2-3 weeks.

Where two headings read alike, the source gives them in different places. Marks after values point to notes of the source that are not given here.

Regarding `COc1cccc2c1C(=O)c1c(O)c3c(c(O)c1C2=O)C[C@@](O)(C(=O)CO)C[C@@H]3O[C@H]1C[C@H](N)[C@H](O)[C@H](C)O1` [DOX, doxorubicin], the tumor volume result in data set [1] was “greater than 300 mm^3”.

In the case of `N.N.[Cl][Pt][Cl]` [Cisplatin, cis-diamminedichloroplatinum, reference compound], the half-inhibitory concentration (IC50) was 7 µg/mL in data set [2] (MCF-7, cisplatin basis); 23 µM in data set [2] (MCF-7, read-out: IC50); 4 µg/mL in data set [3] (cisplatin basis); 7 µg/mL in data set [3] (cisplatin basis, listed as cisplatin); 13 µM in data set [3] (read-out: IC50); 5 µg/mL in data set [4] (HA carriers on a Pt-basis equivalent to cisplatin). Besides, the IC50 in data set [4] (Pt-basis, read-out: IC50) was 17 µM. The “AUC (0-96 hrs)” value was found to be 208.5 µg·h/g in data set [5] (Bladder, subcutaneous into right mammary fatpad of female rats); 442.5 µg·h/g in data set [5] (Brain, subcutaneous into right mammary fatpad); 459.0 µg·h/g in data set [5] (Heart, subcutaneous into right mammary fatpad); 650.9 µg·h/g in data set [5] (Kidneys, subcutaneous into right mammary fatpad); 349.5 µg·h/g in data set [5] (Left lymph node (LLN), subcutaneous into right mammary fatpad); 415.6 µg·h/g in data set [5] (Liver, subcutaneous into right mammary fatpad). Also, the “AUC (0-96 hrs)” value was 409.8 µg·h/g in data set [5] (Lungs, subcutaneous into right mammary fatpad); 371.5 µg·h/g in data set [5] (Muscle, subcutaneous into right mammary fatpad); 174.1 µg·h/g in data set [5] (Plasma, subcutaneous into right mammary fatpad); 446.0 ^† μg · hr/g in data set [5] (Right lymph node (RLN), subcutaneous into right mammary fatpad, p < 0.05); 349.1 µg·h/g in data set [5] (Spleen, subcutaneous into right mammary fatpad). Moreover, in data set [5] (intravenous (as worded in legend of FIG. 10B)), the “serum Cmax” value is “over 4 micrograms/mL”. In addition, the tumor growth delay entry in data set [6] was “about 3 weeks”.
